How the values were obtained:
11-deoxycorticosterone = assay: Serum 11-deoxycorticosterone (pharmacodynamic response); type: in vivo, human; conditions: for 11-Deoxycorticosterone, Mean (SD) Observed / 11-Deoxycorticosterone, Mean (SD) Percent Change from Baseline: Part 1; for 11-Deoxycorticosterone, Mean Observed / 11-Deoxycorticosterone, Mean Percent Change from Baseline: Part 2
Source text: PK/PD Analysis Set includes all subjects in the SAF who have sufficient data available for the analysis of pharmacokinetic and pharmacodynamic measurements. In the analyses based on PKPD, subjects will be analyzed according to the actual treatment received.

hypertensive subjects = assay: Clinical laboratory evaluations (chemistry incl. serum creatinine, hematology, coagulation, urinalysis); type: in vivo, human
Source text: Safety endpoints of this study are: • (a) Incidence and severity of all spontaneously reported adverse events (AEs) • (b) Changes in vital signs (standing SBP, standing DBP, body temperature, heart rate, and respiratory rate) • (c) Changes in electrocardiogram parameters (including cardiac intervals: PR, QRS, QT, and corrected QT interval using Fridericia's formula) • (d) Changes in clinical laboratory assessments (hematology, chemistry, coagulation, and urinalysis) • (e) Change in office-measured SBP from Study Week 8 (end-of-treatment period to end of follow up (i.e. end of Study Week 12 for Part 1 and end of Study 10 for Part 2).

## CC(=O)N[C@H]1CC[C@H](NC(=O)CN2CCN(c3nncc(-c4ccc(C)cc4)n3)CC2)CC1 [Compound A HBr]
11-deoxycorticosterone; Wk 4, 12.5 mg BID
  11-Deoxycorticosterone, Mean (SD) Observed: 9.0 (3.0) ng/dL
  11-Deoxycorticosterone, Mean (SD) Percent Change from Baseline: 12.50 (37.50) %
11-deoxycorticosterone; Wk 4, 12.5 mg QD
  11-Deoxycorticosterone, Mean (SD) Observed: 11.1 (5.5) ng/dL
  11-Deoxycorticosterone, Mean (SD) Percent Change from Baseline: 31.41 (60.95) %
11-deoxycorticosterone; Wk 4, 25 mg BID
  11-Deoxycorticosterone, Mean (SD) Observed: 13.7 (13.9) ng/dL
  11-Deoxycorticosterone, Mean (SD) Percent Change from Baseline: 71.63 (173.69) %
11-deoxycorticosterone; Wk 4, 50 mg QD
  11-Deoxycorticosterone, Mean (SD) Observed: 8.0 (0.0) ng/dL
  11-Deoxycorticosterone, Mean (SD) Percent Change from Baseline: −2.66 (9.61) %
11-deoxycorticosterone; Wk 4, 100 mg QD
  11-Deoxycorticosterone, Mean (SD) Observed: 9.5 (5.2) ng/dL
  11-Deoxycorticosterone, Mean (SD) Percent Change from Baseline: 16.18 (66.37) %
  11-Deoxycorticosterone, Mean Observed: 10.28 ng/dL
  11-Deoxycorticosterone, Mean Percent Change from Baseline: 6.02%
11-deoxycorticosterone; Wk 12, 12.5 mg BID
  11-Deoxycorticosterone, Mean (SD) Observed: 8.0 (0.0) ng/dL
  11-Deoxycorticosterone, Mean (SD) Percent Change from Baseline: 0.00 (0.00) %
11-deoxycorticosterone; Wk 12, 12.5 mg QD
  11-Deoxycorticosterone, Mean (SD) Observed: 9.2 (4.9) ng/dL
  11-Deoxycorticosterone, Mean (SD) Percent Change from Baseline: 11.96 (62.37) %
11-deoxycorticosterone; Wk 12, 25 mg BID
  11-Deoxycorticosterone, Mean (SD) Observed: 8.0 (0.0) ng/dL
  11-Deoxycorticosterone, Mean (SD) Percent Change from Baseline: 0.00 (0.00) %
11-deoxycorticosterone; Wk 12, 50 mg QD
  11-Deoxycorticosterone, Mean (SD) Observed: 8.5 (2.4) ng/dL
  11-Deoxycorticosterone, Mean (SD) Percent Change from Baseline: 3.01 (31.53) %
11-deoxycorticosterone; Wk 12, 100 mg QD
  11-Deoxycorticosterone, Mean (SD) Observed: 8.4 (2.0) ng/dL
  11-Deoxycorticosterone, Mean (SD) Percent Change from Baseline: 2.80 (28.58) %
11-deoxycorticosterone; Part 1 active treatment arms, Week 4
  11-deoxycorticosterone compared with placebo: Transient increases
11-deoxycorticosterone; Wk 10, 100 mg QD
  11-Deoxycorticosterone, Mean Observed: 8.00 ng/dL
  11-Deoxycorticosterone, Mean Percent Change from Baseline: −8.78%
11-deoxycorticosterone; summary of trial
  11-deoxycorticosterone levels: unaffected
Hypertensive subjects; Part 1 or Part 2
  Clinical laboratory parameters (chemistry, hematology, coagulation, urinalysis), change from baseline to Week 8: no meaningful changes
Hypertensive subjects; active treatment cohorts, Parts 1 and 2
  Serum creatinine levels compared with placebo: increased
